From patent US9988268B2, “Preparation of 2,6- and 2,7-disubstituted anthraquinone derivatives” (BASF SE, priority 2014, dated 2018)
≈ marks a conversion by molar mass, not a printed value. Read-outs that look alike come from different tables or passages of the source.

Test: Determination of the solubility of anthraquinone derivatives in xylene/diisobutylcarbinol
Assay type: physicochemical
Settings: for solubility: mixture of xylene (50 volume-%) and diisobutylcarbinol (50 volume-%), 22° C.; for Solubility (in words): xylene/diisobutylcarbinol solvent system, comparison of anthraquinone derivatives
Description: 0.06 ml of a mixture of xylene (50 volume-%) and diisobutylcarbinol (50 volume-%) were added to 1 g of the respective anthraquinone derivative at 22° C. every 60 seconds until the anthraquinone derivative was dissolved completely.

| SMILES | solubility (xylene/diisobutylcarbinol mixture (50:50 by volume), organic solvent or mixture, thermodynamic from solid, read-out: Solubility) [mM] | Solubility (in words) | solubility |
| --- | --- | --- | --- |
| CCc1ccc2c(c1)C(=O)c1ccccc1C2=O [2-ethylanthraquinone] | 270 (≈ 63.8 mg/mL) | poorly soluble | – |
| Cc1cc2c(cc1C)C(=O)c1cc(C)c(C)cc1C2=O [Comparative Example 6, 2,3,6,7-tetramethylanthracene-9,10-dione] | – | insoluble | insoluble |
